Assay results as given in patent US20250163119A1, “COMPOUNDS FOR THE TREATMENT OF DIABETES OR OBESITY” (Eli Lilly and Company, priority 2023, published 2025).
Several values for one entry are separate records, joined by “and”; a condition that tells them apart may be missing. Identical values can stand only once. Like-named read-outs stand apart in the source and are kept apart here. *1 amine or outer side, *2 acyl side, *3 side chain or, on linkers, in order; H or OH if unused. [ ]: non-standard residue; d: D form. The star is where a group is joined. C20 diacid = O=C(O)CCCCCCCCCCCCCCCCCCC(=O)*; γGlu = O=C(O)[C@H](CCC(=O)[*:2])N[*:1]; εLys = N[C@@H](CCCCN[*:1])C(=O)[*:2]; αMeL = CC(C)C[C@](C)(N)C(=O)O; AEEA = NCCOCCOCC(=O)O; Aib = CC(C)(N)C(=O)O

Experiments:
[1] = Pharmacokinetics in Sprague Dawley rats, single subcutaneous or intravenous dose (incl. 10, 30, 100 nmol/kg dose response); assay type: in vivo
[2] = molecular target: T1, human CRHR2 (Homo sapiens, UniProt Q13324); assay: Human CRHR2 cAMP assay (HTRF) in HEK293 cells stably expressing human CRHR2; assay type: cell-based; details: HEK293 cells overexpressing human CRHR2; relative EC50, maximum 10 nM human UCN2; mean ± SE; read-out: hCRHR2 cAMP EC50 (pM, ± SE)
T1 construct: expressed in transfected cells
T1 sequence (Q13324 1-438 isoform Q13324-2): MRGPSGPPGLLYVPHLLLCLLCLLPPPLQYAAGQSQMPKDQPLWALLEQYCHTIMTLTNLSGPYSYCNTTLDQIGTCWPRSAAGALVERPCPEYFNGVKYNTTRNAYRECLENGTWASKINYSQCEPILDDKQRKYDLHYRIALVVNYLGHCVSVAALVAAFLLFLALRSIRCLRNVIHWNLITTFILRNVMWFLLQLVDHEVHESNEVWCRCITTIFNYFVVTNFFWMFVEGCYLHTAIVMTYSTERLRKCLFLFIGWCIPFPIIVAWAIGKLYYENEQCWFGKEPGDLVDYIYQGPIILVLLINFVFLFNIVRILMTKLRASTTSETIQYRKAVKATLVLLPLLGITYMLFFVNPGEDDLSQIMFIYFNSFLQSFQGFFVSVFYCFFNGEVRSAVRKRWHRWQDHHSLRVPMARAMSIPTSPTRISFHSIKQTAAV
How it was run: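 Stably expressing HEK293 clones received peptide concentration series in phosphodiesterase-inhibited buffer (0.25 mM IBMX, pH 7.4). After receptor-specific incubation (CRHR1 1 h at 37° C; CRHR2 30 min at room temperature), cells were lysed with HTRF cAMP reagents for 60 min and the 665/620 nm ratio recorded.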

[3] = dose response, single subcutaneous dose 10 nmol/kg, male Sprague Dawley rats, individual animal
[4] = dose response, single subcutaneous dose 30 nmol/kg, male Sprague Dawley rats, individual animal
[5] = dose response, single subcutaneous dose 100 nmol/kg, male Sprague Dawley rats, individual animal
[6] = male Sprague Dawley rats, single intravenous dose 190 nmol/kg, individual animal
[7] = male, Sprague Dawley, rat, plasma, iv, 190 nmol/kg, single intravenous dose 190 nmol/kg, Mean
[8] = male, Sprague Dawley, rat, plasma, iv, 190 nmol/kg, single intravenous dose 190 nmol/kg, individual animal
[9] = single subcutaneous dose 190 nmol/kg, male Sprague Dawley rats, individual animal

{C20 diacid-εLys-AEEA-γGlu}-GSPSIVTS[αMeL]DVPT[Aib][αMeL]LQKILEQERAEKARQQATEAAEILAQV-NH2 [SEQ ID NO: 25]
AUC0-inf [1, 3]: 1.05 µM·h and 0.972 µM·h and 1.11 µM·h
CL/F [1, 3]: 0.175 mL/min/kg and 0.152 mL/min/kg
Cmax [1, 3]: 20.8 nM and 21.9 nM and 26.8 nM
T1/2 [1, 3]: 18.6 h and 31.5 h
Tmax [1, 3]: 6 h
AUC0-inf [1, 4]: 2.64 µM·h and 2.91 µM·h and 2.96 µM·h
CL/F [1, 4]: 0.173 mL/min/kg and 0.17 mL/min/kg
Cmax [1, 4]: 55.0 nM and 68.0 nM and 59.1 nM
T1/2 [1, 4]: 19.6 h and 20.8 h
Tmax [1, 4]: 6 h
AUC0-inf [1, 5]: 12.5 µM·h and 14 µM·h and 13.4 µM·h
CL/F [1, 5]: 0.119 mL/min/kg and 0.124 mL/min/kg
Cmax [1, 5]: 239 nM and 316 nM and 328 nM
T1/2 [1, 5]: 17.4 h and 15.7 h
AUC0-inf [1, 6]: 41.3 µM·h and 46.9 µM·h and 61.8 µM·h
C0 [1, 6]: 1610 nM and 3540 nM and 3610 nM
CL [1, 6]: 0.0673 mL/min/kg and 0.0512 mL/min/kg
T1/2 [1, 6]: 16.9 h and 18.2 h
clearance [1, 7]: 0.065 mL/min/kg
half-life [1, 7]: 17.5 h
clearance [1, 8]: 0.0765 mL/min/kg
half-life [1, 8]: 17.4 h
half-life ([1]; male, Sprague Dawley, rat, plasma, sc, 10 nmol/kg, dose response, single subcutaneous dose 10 nmol/kg, individual animal): 19.9 h
CL/F ([1]; male, Sprague Dawley, rat, plasma, sc, 10 nmol/kg, dose response, single subcutaneous dose 10 nmol/kg, individual animal, read-out: CL/F (converted)): 0.162 mL/min/kg
half-life ([1]; male, Sprague Dawley, rat, plasma, sc, 10 nmol/kg, dose response, single subcutaneous dose 10 nmol/kg, mean): 23.3 h
CL/F ([1]; male, Sprague Dawley, rat, plasma, sc, 10 nmol/kg, dose response, single subcutaneous dose 10 nmol/kg, mean, read-out: CL/F (converted)): 0.163 mL/min/kg
Tmax ([1]; male, Sprague Dawley, rat, plasma, sc, 10 nmol/kg, dose response, single subcutaneous dose 10 nmol/kg, mean, read-out: Tmax): 18 h
half-life ([1]; male, Sprague Dawley, rat, plasma, sc, 30 nmol/kg, dose response, single subcutaneous dose 30 nmol/kg, individual animal): 19.2 h
CL/F ([1]; male, Sprague Dawley, rat, plasma, sc, 30 nmol/kg, dose response, single subcutaneous dose 30 nmol/kg, individual animal, read-out: CL/F (converted)): 0.19 mL/min/kg
half-life ([1]; male, Sprague Dawley, rat, plasma, sc, 30 nmol/kg, dose response, single subcutaneous dose 30 nmol/kg, mean): 19.9 h
CL/F ([1]; male, Sprague Dawley, rat, plasma, sc, 30 nmol/kg, dose response, single subcutaneous dose 30 nmol/kg, mean, read-out: CL/F (converted)): 0.178 mL/min/kg
Tmax ([1]; male, Sprague Dawley, rat, plasma, sc, 30 nmol/kg, dose response, single subcutaneous dose 30 nmol/kg, mean, read-out: Tmax): 18 h
half-life ([1]; male, Sprague Dawley, rat, plasma, sc, 100 nmol/kg, dose response, single subcutaneous dose 100 nmol/kg, individual animal): 16 h
CL/F ([1]; male, Sprague Dawley, rat, plasma, sc, 100 nmol/kg, dose response, single subcutaneous dose 100 nmol/kg, individual animal, read-out: CL/F (converted)): 0.133 mL/min/kg
Tmax ([1]; male, Sprague Dawley, rat, plasma, sc, 100 nmol/kg, dose response, single subcutaneous dose 100 nmol/kg, individual animal, read-out: Tmax): 24 h
half-life ([1]; male, Sprague Dawley, rat, plasma, sc, 100 nmol/kg, dose response, single subcutaneous dose 100 nmol/kg, mean): 16.4 h
CL/F ([1]; male, Sprague Dawley, rat, plasma, sc, 100 nmol/kg, dose response, single subcutaneous dose 100 nmol/kg, mean, read-out: CL/F (converted)): 0.126 mL/min/kg
Tmax ([1]; male, Sprague Dawley, rat, plasma, sc, 100 nmol/kg, dose response, single subcutaneous dose 100 nmol/kg, mean, read-out: Tmax): 24 h
half-life ([1]; male, Sprague Dawley, rat, plasma, sc, 190 nmol/kg, single subcutaneous dose 190 nmol/kg, individual animal): 14.8 h
CL/F ([1]; male, Sprague Dawley, rat, plasma, sc, 190 nmol/kg, single subcutaneous dose 190 nmol/kg, individual animal, read-out: CL/F (converted)): 0.136 mL/min/kg
Tmax ([1]; male, Sprague Dawley, rat, plasma, sc, 190 nmol/kg, single subcutaneous dose 190 nmol/kg, individual animal, read-out: Tmax): 24 h
half-life ([1]; male, Sprague Dawley, rat, plasma, sc, 190 nmol/kg, single subcutaneous dose 190 nmol/kg, mean): 14.4 h
CL/F ([1]; male, Sprague Dawley, rat, plasma, sc, 190 nmol/kg, single subcutaneous dose 190 nmol/kg, mean, read-out: CL/F (converted)): 0.137 mL/min/kg
Tmax ([1]; male, Sprague Dawley, rat, plasma, sc, 190 nmol/kg, single subcutaneous dose 190 nmol/kg, mean, read-out: Tmax): 24 h
AUC0-inf ([1]; rat, plasma, sc, dose response, single subcutaneous dose 10 nmol/kg, male Sprague Dawley rats, mean, read-out: AUC0-inf): 1.04 µM·h
Cmax ([1]; rat, plasma, sc, dose response, single subcutaneous dose 10 nmol/kg, male Sprague Dawley rats, mean, read-out: Cmax): 23.2 nM
AUC0-inf ([1]; rat, plasma, sc, dose response, single subcutaneous dose 30 nmol/kg, male Sprague Dawley rats, mean, read-out: AUC0-inf): 2.84 µM·h
Cmax ([1]; rat, plasma, sc, dose response, single subcutaneous dose 30 nmol/kg, male Sprague Dawley rats, mean, read-out: Cmax): 60.7 nM
AUC0-inf ([1]; rat, plasma, sc, dose response, single subcutaneous dose 100 nmol/kg, male Sprague Dawley rats, mean, read-out: AUC0-inf): 13.3 µM·h
Cmax ([1]; rat, plasma, sc, dose response, single subcutaneous dose 100 nmol/kg, male Sprague Dawley rats, mean, read-out: Cmax): 294 nM
AUC0-inf ([1]; rat, plasma, sc, single subcutaneous dose 190 nmol/kg, male Sprague Dawley rats, mean, read-out: AUC0-inf): 23.2 µM·h
Cmax ([1]; rat, plasma, sc, single subcutaneous dose 190 nmol/kg, male Sprague Dawley rats, mean, read-out: Cmax): 508 nM
AUC0-inf ([1]; rat, plasma, male Sprague Dawley rats, single intravenous dose 190 nmol/kg, Mean, read-out: AUC0-inf): 50 µM·h
C0 ([1]; rat, plasma, male Sprague Dawley rats, single intravenous dose 190 nmol/kg, Mean, read-out: C0): 2920 nM
AUC0-inf [1, 9]: 23.4 µM·h and 21.6 µM·h and 24.7 µM·h
CL/F [1, 9]: 0.147 mL/min/kg and 0.128 mL/min/kg
Cmax [1, 9]: 466 nM and 475 nM and 582 nM
T1/2 [1, 9]: 13.9 h and 14.5 h
EC50 [2]: 6.9 ± 0.5 pM
